The values that follow come from US20050026911A1, “Benzotriazapinone salts and methods for using same” (priority 2003, published 2005).

Experiment [1] addresses T1, gastrin (CCK2) receptors (Rattus norvegicus, UniProt P30553).
T1 construct: The stomach was excised and flushed with ca. 1 ml of unbuffered physiological saline solution; from tissue; host or cells: isolated whole stomach of immature rats (ca. 21 days old)
T1 sequence (P30553 1-452): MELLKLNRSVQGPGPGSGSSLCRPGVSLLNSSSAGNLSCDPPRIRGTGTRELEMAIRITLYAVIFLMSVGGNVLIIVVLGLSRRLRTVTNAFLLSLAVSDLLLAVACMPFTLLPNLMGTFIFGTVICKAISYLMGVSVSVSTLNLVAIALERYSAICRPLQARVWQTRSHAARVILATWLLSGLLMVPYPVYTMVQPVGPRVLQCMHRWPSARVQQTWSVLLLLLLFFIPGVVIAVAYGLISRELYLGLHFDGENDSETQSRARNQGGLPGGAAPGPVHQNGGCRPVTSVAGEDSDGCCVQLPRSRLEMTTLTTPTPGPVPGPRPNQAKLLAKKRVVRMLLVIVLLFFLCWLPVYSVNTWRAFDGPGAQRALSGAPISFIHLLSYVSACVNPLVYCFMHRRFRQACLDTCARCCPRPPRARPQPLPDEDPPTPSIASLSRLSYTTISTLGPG
Briefly: gastrin (CCK2) antagonist activity in an immature rat stomach assay. The settings on record: pentagastrin dose-response curves, acid secretion, read-out: pKB rat stomach (converted). The essentials:
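Stomachs excised from immature rats (33-50 g, ca. 21 days old) were perfused at 1 ml min^−1 with unbuffered O2-gassed saline, with acid output tracked by a pH electrode. After 120 min stabilisation, drug was added to the serosal bath, followed 60 min later by cumulative pentagastrin dose-response curves.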

Experiment [2] has as its target T2, human gastrin (CCK2) receptors (Homo sapiens, UniProt P32239).
T2 construct: amplified by PCR (polymerase chain reaction) from the start codon to the stop codon; expressed in transfected cells
T2 sequence (P32239 1-447): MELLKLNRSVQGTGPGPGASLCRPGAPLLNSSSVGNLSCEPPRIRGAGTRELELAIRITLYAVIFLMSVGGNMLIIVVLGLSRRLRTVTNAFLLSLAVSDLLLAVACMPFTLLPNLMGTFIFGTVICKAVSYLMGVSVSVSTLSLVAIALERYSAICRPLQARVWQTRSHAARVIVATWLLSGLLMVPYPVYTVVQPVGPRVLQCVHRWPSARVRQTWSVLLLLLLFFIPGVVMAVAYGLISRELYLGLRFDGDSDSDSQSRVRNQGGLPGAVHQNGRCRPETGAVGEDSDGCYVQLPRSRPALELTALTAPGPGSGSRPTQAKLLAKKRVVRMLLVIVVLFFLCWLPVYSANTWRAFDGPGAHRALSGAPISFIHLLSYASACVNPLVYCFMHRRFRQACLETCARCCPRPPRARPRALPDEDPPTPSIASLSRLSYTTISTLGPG
In words: [125I]-BH-CCK-8S binding at human gastrin (CCK2) receptors cloned into an NIH3T3 cell line. To be noted: for Ki: read-out: pKi ± s.e.mean (converted); for pKi ± s.e.mean: displacement of [125I]-BH-CCK-8S, hCCK2R NIH3T3 clone 7 cell membranes. The procedure: NIH3T3 cells from (ECACC) were cultured in Dulbecco's modified Eagle's medium (DMEM) (Invitrogen), containing 2 mM Glutamax I (Invitrogen), 10% heat inactivated newborn calf serum (Invitrogen). Cells (4×10^5) were seeded into 35 mm×10 mm dishes (Corning) and transfected using the Transfast™ reagent (Promega Corp.) according to the manufacturers instructions using 10 μg of the hCCK2R plasmid DNA at a ratio of 1:1 (DNA:Transfast™ reagent). Untransfected cells and cells transfected with vector only were also prepared as controls. After 48 h the cells were trypsinised using standard techniques (Culture of Animal Cells, A Manual of Basic Techniques 4th Ed, R. Ian Freshney) and dilutions were plated on 35 mm×10 mm dishes in media containing 800 μg/ml G-418 (Invitrogen). Cells were selected for 2 weeks until individual, separate colonies appeared. […] Using cloning rings and trypsinisation, according to standard techniques (Culture of Animal Cells, A Manual of Basic Techniques 4th Ed, R. Ian Freshney), individual colonies were picked from plates containing cells transfected with the vector only and cells transfected with the hCCK2R plasmid construct. The cells were expanded and analysed by radioligand binding analysis (see below).
Cultured clone 7 cells were stored as frozen pellets at −70° C. until required. Cell pellets were thawed in CCK2 assay buffer ((mM): 10 Hepes; 130 NaCl; 5 MgCl2; 4.7 KCl; 1 EGTA (pH7.2 at 21° C.) with 0.125 g Bacitracin added to each litre), and homogenised using a Polytron (4×1 s). The resulting membrane preparation was centrifuged at 39,800 g for 15 min at 4° C. Each cell pellet was re-suspended in fresh buffer and re-centrifuged as above. The final pellet was re-suspended by homogenisation (Teflon-in-glass), to the appropriate membrane concentration.
The assays were terminated by rapid filtration through pre-soaked Whatman GF/B filters which were washed (3×3 ml) with ice-cold 50 mM Tris HCl (pH7.4 @ 4° C.). Filters were transferred to plastic gamma counter vials and bound radioactivity determined by counting (1 min) in a Clini-gamma counter.
Saturation data were analysed using the curve-fitting programmes, Radlig and Ligand.
Briefly, dilution and addition of test compounds, radioligand and cell membranes were performed using a Beckman Biomek 2000. The ability of compounds to inhibit the specific binding of to hCCK2 receptors was determined in triplicate over a range of concentrations at half-log intervals. Total and non-specific binding was determined for each compound. Each compound was tested in a minimum of three experiments. Competition data were fitted to the Hill equation using Graph-pad Prism software to obtain estimates of the IC50 (mid-point location parameter) and nH (mid-point slope parameter). Dissociation constants (KI) were determined using the Cheng & Prusoff equation (1973) to correct for the receptor occupancy by the radioligand.
A general note: Loss of bound radioactivity is the signal in a displacement assay; it reports binding, not function.

Experiment [3] concerns the target T1, gastrin (CCK2) receptors. To be noted: rat stomach assay; Kalindjian et al., J. Med. Chem. 1994; cited from earlier work.

Regarding `O=C(CN1N=C(C2CCCCC2)c2ccccc2N(CC(=O)C2CCCC2)C1=O)Nc1cccc(-c2nc(=O)o[nH]2)c1` [Example 121, 2-[5-Cyclohexyl-1-(2-cyclopentyl-2-oxo-ethyl)-2-oxo-1,2-dihydro-3H-1,3,4-benzotriazepin-3-yl]-N-[3-(5-oxo-Z 5-dihydro-[1,2,4]oxadiazol-3-yl)-phenyl]-acetamide], the Kb in experiment [1] is 0.295 nM. Further, the Ki in experiment [2] is 0.11 nM.
In the case of `CN1C(=O)N(CC(=O)Nc2ccccc2)[N+]([O-])=C(C2CCCCC2)c2ccccc21` [Example 160, 2-(5-Cyclohexyl-1-methyl-2-oxo-4-oxy-1,2-dihydro-3H-1,3,4-benzotriazepin-3-yl)-N-phenyl-acetamide], in experiment [1], the Kb was 2.82 nM. The Ki in experiment [2] was 3240 nM.
As to `O=C(O)CCc1cccc(NC(=O)CN2N=C(C3CCCCC3)c3ccccc3N(CC(=O)C3CCCC3)C2=O)c1` [Example 128, 3-(3-{2-[5-Cyclohexyl-1-(2-cyclopentyl-2-oxo-ethyl)-2-oxo-1,2-dihydro-3H-1,3,4-benzotriazepin-3-yl]-acetylamino}-phenyl)-propionic acid], the Kb in experiment [1] is 1.23 nM. Moreover, the Ki in experiment [2] is 0.204 nM.
Regarding `CC(C)(C)C(=O)CN1C(=O)N(CC(=O)Nc2cccc(-c3nc(=O)o[nH]3)c2)N=C(C2CCCCC2)c2ccccc21` [Example 59, 2-[5-Cyclohexyl-1-(3,3-dimethyl-2-oxo-butyl)-2-oxo-1,2-dihydro-3H-1,3,4-benzotriazepin-3-yl]-N-[3-(5-oxo-Z5-dihydro-[1,2,4]oxadiazol-3-yl)-phenyl]-acetamide], the Kb in experiment [1] is 9.55 nM. In addition, the Ki in experiment [2] is 0.219 nM.
Consider `Cc1cccc(NC(=O)N[C@@H]2N=C(c3ccccc3)c3ccccc3N(C)C2=O)c1` [L-365,260], for which the “affinity pKB for the CCK2 receptor” value in experiment [3] is given as 7.61±0.12.
Consider `O=C(O)CSc1cccc(NC(=O)CN2N=C(C3CCCCC3)c3ccccc3N(CC(=O)C3CCCC3)C2=O)c1` [Example 58, (3-{2-[5-Cyclohexyl-1-(2-cyclopentyl-2-oxo-ethyl)-2-oxo-1,2-dihydro-3H-1,3,4-benzotriazepin-3-yl]-acetylamino}-phenylsulfanyl)-acetic acid], for which, in experiment [1], the Kb was 1.48 nM. The “pKi ± s.e.mean” value in experiment [2] came out at 9.48 ± 0.08.
Take `O=C(CN1N=C(C2CCCCC2)c2ccccc2N(CC(=O)C2CCCC2)C1=O)Nc1cccc(C(=O)O)c1` [Example 22, 3-{2-[5-Cyclohexyl-1-(2-cyclopentyl-2-oxo-ethyl)-2-oxo-1,2-dihydro-3H-1,3,4-benzotriazepin-3-yl]-acetylamino}-benzoic acid]: the Kb in experiment [1] was 1.86 nM. Moreover, in experiment [2], the Ki is 0.355 nM.
`Cc1cccc(NC(=O)N[C@@H]2N=C(c3ccccc3)c3ccccc3N(CC(=O)c3ccccc3C)C2=O)c1` [YM022, reference compound]: the “pKi ± s.e.mean” value in experiment [2] was found to be 10.19 ± 0.03.
As for `O=C(O)Cc1cccc(NC(=O)CN2N=C(C3CCCCC3)c3ccccc3N(CC(=O)C3CCCC3)C2=O)c1` [Example 56, (3-{2-[5-Cyclohexy-1-(2-cyclopentyl-2-oxo-ethyl)-2-oxo-1,2-dihydro-3H-1,3,4-benzotriazepin-3-yl]-acetylamino}-phenyl)-acetic acid], the Kb in experiment [1] is 0.741 nM. Besides, the Ki in experiment [2] was 0.162 nM.
Regarding `Cc1cccc2c1C(C1CCCCC1)=NN(CC(=O)Nc1cccc(CC(=O)O)c1)C(=O)N2CC(=O)C(C)(C)C` [Example 132, (3-{2-[5-Cyclohexyl-1-(3,3-dimethyl-2-oxo-butyl)-6-methyl-2-oxo-1,2-dihydro-3H-1,3,4-benzotriazepin-3-yl]-acetylamino}-phenyl)-acetic acid], the Kb in experiment [1] was 66.1 nM.
With `O=C(O)CSc1cccc(NC(=O)CN2N=C(C3CCCCC3)c3ccccc3N(CC(=O)C3CC3)C2=O)c1` [Example 120, [3-(2-{5-Cyclohexyl-1-(2-cyclopropyl-2-oxo-ethyl)-2-oxo-1,2-dihydro-3H-1,3,4-benzotriazepin-3-yl]-acetylamino}-phenylsulfanyl)-acetic acid], the Kb in experiment [1] is 37.2 nM.
Regarding `CC(C)(C)C(=O)CN1C(=O)N(CC(=O)Nc2cccc(-c3nn[nH]n3)c2)N=C(C2CCCCC2)c2ccccc21` [Example 23, 2-[5-Cyclohexyl-1-(3,3-dimethyl-2-oxo-butyl)-2-oxo-1,2-dihydro-3H-1,3,4-benzotriazepin-3-yl]-N-[3-(2H-tetrazol-5-yl)-phenyl]-acetamide], the Kb in experiment [1] is 11.2 nM.
On to `CC(C)(C)C(=O)CN1C(=O)N(CC(=O)NCc2cccc(C(=O)O)c2)N=C(C2CCCCC2)c2ccccc21` [Example 45, 3-({2-[5-Cyclohexyl-1-(3,3-dimethyl-2-oxo-butyl)-2-oxo-1,2-dihydro-3H-1,3,4-benzotriazepin-3-yl]-acetylamino}-methyl)-benzoic acid], for which the Kb in experiment [1] is 93.3 nM.
Still for that read-out and setting: to `COc1ccc(NC(=O)CN2N=C(C3CCCCC3)c3ccccc3N(CC(=O)C(C)(C)C)C2=O)cc1` [Example 32, 2-[5-Cyclohexyl-1-(3,3-dimethyl-2-oxo-butyl)-2-oxo-1,2-dihydro-3H-1,3,4-benzotriazepin-3-yl]-N-(4-methoxy-phenyl)-acetamide] belongs 77.6 nM; to `CC(C)(C)C(=O)CN1C(=O)N(CC(=O)Nc2ccc3ccn(Cc4nnn[nH]4)c3c2)N=C(C2CCCCC2)c2ccccc21` [Example 131, 2-[5-Cyclohexyl-1-(3,3-dimethyl-2-oxo-butyl)-2-oxo-1,2-dihydro-3H-1,3,4-benzotriazepin-3-yl]-N-[1-(1H-tetrazol-5-ylmethyl)-1H-indol-6-yl]-acetamide], 1.62 nM.
As to `CC1(C(=O)CN2C(=O)N(CC(=O)Nc3cccc(C(=O)O)c3)N=C(C3CCCCC3)c3ccccc32)CCCC1` [Example 88, 3-(2-{5-Cyclohexyl-1-[2-(1-methyl-cyclopentyl)-2-oxo-ethyl]-2-oxo-1,2-dihydro-3H-1,3,4-benzotriazepin-3-yl}-acetylamino)-benzoic acid], the Kb in experiment [1] is 11.7 nM.
As to `CC1(C(=O)CN2C(=O)N(CC(=O)Nc3cccc(CC(=O)O)c3)N=C(C3CCCCC3)c3ccccc32)CCCCC1` [Example 133, [3-(2-{5-Cyclohexyl-1-[2-(1-methyl-cyclohexyl)-2-oxo-ethyl]-2-oxo-1,2-dihydro-3H-1,3,4-benzotriazepin-3-yl}-acetylamino)-phenyl]-acetic acid], in experiment [1], the Kb was 14.1 nM.
